Assay [1] in a line: luciferase reporter signal suppression in cells – H4 neuroglioma cells, luminescence, dose response (AID 1990). The assay is classed as functional, cell-based. (Reporter assays use an easily measured gene product as a stand-in for the process of interest.)
Assay [2] in a line: Luminescence Cell-Based Dose Response HTS to Identify Inhibitors of 5'UTR Stem-Loop Driven Prion Protein mRNA Translation in H4 Neuroglioblastoma Cells. [Related pubchem assays: 1827 (Project Summary), 1813 (Primary HTS)]. Type of assay: functional.
Assay [3] can be described thus: alpha-synuclein stem-loop luciferase translation blockers – H4 neuroglioma cells, luminescence, confirmation (AID 1988). The assay is classed as functional, cell-based.
The next assay addresses T1, Estrogen receptor (Homo sapiens, UniProt P03372).
T1 sequence (P03372 whole entry): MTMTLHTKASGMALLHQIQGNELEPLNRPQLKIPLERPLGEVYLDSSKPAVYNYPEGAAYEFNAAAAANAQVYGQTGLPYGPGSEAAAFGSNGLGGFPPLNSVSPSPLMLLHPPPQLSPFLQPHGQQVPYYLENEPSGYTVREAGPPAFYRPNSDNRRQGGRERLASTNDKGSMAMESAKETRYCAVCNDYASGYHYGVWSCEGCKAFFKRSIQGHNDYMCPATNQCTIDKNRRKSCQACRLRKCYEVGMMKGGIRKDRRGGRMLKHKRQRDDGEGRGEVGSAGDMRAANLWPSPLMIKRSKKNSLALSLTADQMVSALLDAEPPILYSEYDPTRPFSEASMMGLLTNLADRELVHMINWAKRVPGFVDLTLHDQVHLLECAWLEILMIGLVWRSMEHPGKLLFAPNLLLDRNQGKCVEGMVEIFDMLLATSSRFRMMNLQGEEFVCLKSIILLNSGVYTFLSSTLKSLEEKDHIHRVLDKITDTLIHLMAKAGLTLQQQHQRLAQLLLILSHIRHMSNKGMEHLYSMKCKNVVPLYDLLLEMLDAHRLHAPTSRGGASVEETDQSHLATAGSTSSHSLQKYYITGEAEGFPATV

Assay [4] concerns the target T2, Estrogen receptor beta (Homo sapiens, UniProt Q92731).
Assay [5] concerns the target T2, Estrogen receptor beta. The experiment in a line: blockers of SRC-3 recruitment to ERβ – biochemical, ELISA, streptavidin-HRP readout, orthogonal assay, confirmation (AID 1060).
Assay [6] concerns the target Voltage-dependent T-type calcium channel subunit alpha-1H (Homo sapiens, UniProt O95180). The assay is classed as functional.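 Also: channel activity triggered by adding a high calcium stimulation buffer.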
The target of assay [7] is Peroxisome proliferator-activated receptor gamma/Nuclear receptor coactivator 1 (Homo sapiens, UniProt P37231). Description: TR-FRET dose response biochemical High Throughput Screening assay for agonists of the steroid receptor coactivator 1 (SRC-1) recruitment by the peroxisome proliferator-activated receptor gamma (PPAR gamma): non-selective agonists. [Related pubchem assays (depositor defined):AID1300, AID1808, AID504735, AID631]. Type of assay: protein assay. For orientation: TR-FRET usually uses a lanthanide donor and a delayed reading to cut background.

The target in assay [8] is Peroxisome proliferator-activated receptor gamma/Nuclear receptor coactivator 3 (Homo sapiens, UniProt P37231). Description: TR-FRET dose response biochemical High Throughput Screening assay for agonists of the steroid receptor coactivator 3 (SRC-3) recruitment by the peroxisome proliferator-activated receptor gamma (PPAR gamma): non-selective agonists. [Related pubchem assays: 1301 (Confirmation screen.), 1048 (Primary screen.)]. The assay is classed as functional.

In assay [9] the target is Peroxisome proliferator-activated receptor gamma/Nuclear receptor coactivator 2 (Homo sapiens, UniProt P37231). Description: TR-FRET dose response biochemical High Throughput Screening assay for agonists of the steroid receptor coactivator 2 (SRC-2) recruitment by the peroxisome proliferator-activated receptor gamma (PPAR gamma): non-selective agonists. [Related pubchem assays: 1297, 1032 ]. The assay is classed as functional.

The target in assay [10] is T3, E3 ubiquitin-protein ligase XIAP (Homo sapiens, UniProt P98170). Description: Counter Screen using XIAP-Bir3 for Chemical Antagonists of Bir1/2 domains of IAP-family anti-apoptotic proteins. [Related pubchem assays (depositor defined):AID1018, AID1449, AID1514, AID1638, AID1749, AID1750, AID488957, AID488963]. In general terms: The purpose of a counterscreen is to sort out artefacts and off-target activity.
T3 sequence (P98170 whole entry): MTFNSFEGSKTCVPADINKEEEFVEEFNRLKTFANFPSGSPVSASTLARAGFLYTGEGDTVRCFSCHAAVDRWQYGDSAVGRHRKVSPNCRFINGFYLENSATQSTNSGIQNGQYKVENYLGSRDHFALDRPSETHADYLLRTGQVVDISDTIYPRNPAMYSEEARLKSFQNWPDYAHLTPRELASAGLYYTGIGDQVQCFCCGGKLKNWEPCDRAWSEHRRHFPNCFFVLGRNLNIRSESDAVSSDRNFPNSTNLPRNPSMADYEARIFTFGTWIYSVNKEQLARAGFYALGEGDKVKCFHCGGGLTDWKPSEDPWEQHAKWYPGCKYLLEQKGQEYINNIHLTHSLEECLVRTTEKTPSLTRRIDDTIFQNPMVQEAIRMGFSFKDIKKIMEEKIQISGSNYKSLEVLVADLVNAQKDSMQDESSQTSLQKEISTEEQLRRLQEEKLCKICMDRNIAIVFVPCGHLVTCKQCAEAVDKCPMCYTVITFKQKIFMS

The target of assay [11] is T3, E3 ubiquitin-protein ligase XIAP. The experiment in a line: small molecules displacing peptide from XIAP – biochemical, IAP family, fluorescence polarization (AID 1018). Type of assay: functional.
Assay [12] concerns Streptococcus sp. 'group A'. Description: Streptococcus pyogenes SK(-)GAS viability under kanamycin – luminescence, BacTiterGlo, confirmation, counter-screen for streptokinase expression inhibitor project, dose response (AID 1900). Type of assay: functional, organism-based.
The next assay relates to Streptococcus. The experiment in a line: GAS UMAA2166 growth inhibition – luminescence, BacTiterGlo, counter-screen for streptokinase expression inhibitor project, dose response (AID 1915).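 Also: potency for reduction of bacterial viability or growth.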 The assay is classed as functional, organism-based.
Assay [13] in a line: THP-1 cell cytotoxicity, dose response, cytotoxicity control for non-replicating M. tuberculosis project (AID 489025). Type of assay: functional.
The nature of assay [14]: HepG2 cell cytotoxicity, dose response, cytotoxicity control for non-replicating M. tuberculosis project (AID 489018). The assay is classed as functional. The conditions noted are these: Mycobacterium tuberculosis.
The nature of assay [15]: Vero E6 cell cytotoxicity, dose response, cytotoxicity control for non-replicating M. tuberculosis project, secondary assay (AID 492998). The assay is classed as functional, VeroE6. The following applies: Vero C1008.
A short description of a further assay: cells. The assay is classed as functional.
A further assay concerns the target T4, Bcl-2-like protein 10 (Homo sapiens, UniProt Q9HD36).
T4 sequence (Q9HD36 whole entry): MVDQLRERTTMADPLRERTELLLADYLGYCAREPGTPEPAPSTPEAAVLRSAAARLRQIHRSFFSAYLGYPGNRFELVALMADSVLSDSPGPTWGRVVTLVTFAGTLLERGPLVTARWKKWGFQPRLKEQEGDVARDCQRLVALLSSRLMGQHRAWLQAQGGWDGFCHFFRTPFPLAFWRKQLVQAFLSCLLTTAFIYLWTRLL
Description: Bcl-B/TR3 peptide binding disruption – biochemical, fluorescence polarization, FITC-TR3 peptide, selectivity assay for Bfl-1 inhibitor project, primary screen (AID 748).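 Also: fluorescence polarization from a fluorescein-labelled TR3 peptide binding purified Bcl-B.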

Another assay concerns the target Trypsin (Sus scrofa, UniProt P00761). The experiment in a line: trypsin protease activity blockade – biochemical, quenched peptide fluorescence, cherry-pick, selectivity assay for Rce1 protease inhibitor project, dose response (AID 488789).
For another assay, the target named is T5, CAAX prenyl protease 2 (Homo sapiens, UniProt Q9Y256).
T5 sequence (Q9Y256 whole entry): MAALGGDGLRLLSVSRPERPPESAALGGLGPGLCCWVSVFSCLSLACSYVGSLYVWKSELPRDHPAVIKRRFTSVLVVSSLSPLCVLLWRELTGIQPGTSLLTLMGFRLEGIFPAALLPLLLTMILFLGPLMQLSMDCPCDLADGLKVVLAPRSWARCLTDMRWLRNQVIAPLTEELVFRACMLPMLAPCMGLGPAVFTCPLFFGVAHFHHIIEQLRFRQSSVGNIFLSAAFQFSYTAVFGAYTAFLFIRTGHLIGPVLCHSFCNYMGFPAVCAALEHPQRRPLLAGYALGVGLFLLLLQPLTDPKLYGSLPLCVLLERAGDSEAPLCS
The experiment in a line: inhibition of Ras-converting CAAX protease Rce1 – biochemical, yeast membranes, quenched-peptide fluorescence, cherry-pick, dose response (AID 588849).

For another assay, the target named is Troponin, cardiac muscle (Homo sapiens, UniProt P19429+P45379+P63316). Description: Fluorescence-based biochemical high throughput dose response assay for activators of the calcium sensitivity of cardiac Regulated Thin Filaments (RTF). [Related pubchem assays (depositor defined):AID493008, AID493018, AID504382, AID504383]. Type of assay: protein-complex assay.

The source made the active and inactive calls. Bounds are passed on as bounds.

Voltage-dependent T-type calcium channel subunit alpha-1H, sequence (O95180 whole entry): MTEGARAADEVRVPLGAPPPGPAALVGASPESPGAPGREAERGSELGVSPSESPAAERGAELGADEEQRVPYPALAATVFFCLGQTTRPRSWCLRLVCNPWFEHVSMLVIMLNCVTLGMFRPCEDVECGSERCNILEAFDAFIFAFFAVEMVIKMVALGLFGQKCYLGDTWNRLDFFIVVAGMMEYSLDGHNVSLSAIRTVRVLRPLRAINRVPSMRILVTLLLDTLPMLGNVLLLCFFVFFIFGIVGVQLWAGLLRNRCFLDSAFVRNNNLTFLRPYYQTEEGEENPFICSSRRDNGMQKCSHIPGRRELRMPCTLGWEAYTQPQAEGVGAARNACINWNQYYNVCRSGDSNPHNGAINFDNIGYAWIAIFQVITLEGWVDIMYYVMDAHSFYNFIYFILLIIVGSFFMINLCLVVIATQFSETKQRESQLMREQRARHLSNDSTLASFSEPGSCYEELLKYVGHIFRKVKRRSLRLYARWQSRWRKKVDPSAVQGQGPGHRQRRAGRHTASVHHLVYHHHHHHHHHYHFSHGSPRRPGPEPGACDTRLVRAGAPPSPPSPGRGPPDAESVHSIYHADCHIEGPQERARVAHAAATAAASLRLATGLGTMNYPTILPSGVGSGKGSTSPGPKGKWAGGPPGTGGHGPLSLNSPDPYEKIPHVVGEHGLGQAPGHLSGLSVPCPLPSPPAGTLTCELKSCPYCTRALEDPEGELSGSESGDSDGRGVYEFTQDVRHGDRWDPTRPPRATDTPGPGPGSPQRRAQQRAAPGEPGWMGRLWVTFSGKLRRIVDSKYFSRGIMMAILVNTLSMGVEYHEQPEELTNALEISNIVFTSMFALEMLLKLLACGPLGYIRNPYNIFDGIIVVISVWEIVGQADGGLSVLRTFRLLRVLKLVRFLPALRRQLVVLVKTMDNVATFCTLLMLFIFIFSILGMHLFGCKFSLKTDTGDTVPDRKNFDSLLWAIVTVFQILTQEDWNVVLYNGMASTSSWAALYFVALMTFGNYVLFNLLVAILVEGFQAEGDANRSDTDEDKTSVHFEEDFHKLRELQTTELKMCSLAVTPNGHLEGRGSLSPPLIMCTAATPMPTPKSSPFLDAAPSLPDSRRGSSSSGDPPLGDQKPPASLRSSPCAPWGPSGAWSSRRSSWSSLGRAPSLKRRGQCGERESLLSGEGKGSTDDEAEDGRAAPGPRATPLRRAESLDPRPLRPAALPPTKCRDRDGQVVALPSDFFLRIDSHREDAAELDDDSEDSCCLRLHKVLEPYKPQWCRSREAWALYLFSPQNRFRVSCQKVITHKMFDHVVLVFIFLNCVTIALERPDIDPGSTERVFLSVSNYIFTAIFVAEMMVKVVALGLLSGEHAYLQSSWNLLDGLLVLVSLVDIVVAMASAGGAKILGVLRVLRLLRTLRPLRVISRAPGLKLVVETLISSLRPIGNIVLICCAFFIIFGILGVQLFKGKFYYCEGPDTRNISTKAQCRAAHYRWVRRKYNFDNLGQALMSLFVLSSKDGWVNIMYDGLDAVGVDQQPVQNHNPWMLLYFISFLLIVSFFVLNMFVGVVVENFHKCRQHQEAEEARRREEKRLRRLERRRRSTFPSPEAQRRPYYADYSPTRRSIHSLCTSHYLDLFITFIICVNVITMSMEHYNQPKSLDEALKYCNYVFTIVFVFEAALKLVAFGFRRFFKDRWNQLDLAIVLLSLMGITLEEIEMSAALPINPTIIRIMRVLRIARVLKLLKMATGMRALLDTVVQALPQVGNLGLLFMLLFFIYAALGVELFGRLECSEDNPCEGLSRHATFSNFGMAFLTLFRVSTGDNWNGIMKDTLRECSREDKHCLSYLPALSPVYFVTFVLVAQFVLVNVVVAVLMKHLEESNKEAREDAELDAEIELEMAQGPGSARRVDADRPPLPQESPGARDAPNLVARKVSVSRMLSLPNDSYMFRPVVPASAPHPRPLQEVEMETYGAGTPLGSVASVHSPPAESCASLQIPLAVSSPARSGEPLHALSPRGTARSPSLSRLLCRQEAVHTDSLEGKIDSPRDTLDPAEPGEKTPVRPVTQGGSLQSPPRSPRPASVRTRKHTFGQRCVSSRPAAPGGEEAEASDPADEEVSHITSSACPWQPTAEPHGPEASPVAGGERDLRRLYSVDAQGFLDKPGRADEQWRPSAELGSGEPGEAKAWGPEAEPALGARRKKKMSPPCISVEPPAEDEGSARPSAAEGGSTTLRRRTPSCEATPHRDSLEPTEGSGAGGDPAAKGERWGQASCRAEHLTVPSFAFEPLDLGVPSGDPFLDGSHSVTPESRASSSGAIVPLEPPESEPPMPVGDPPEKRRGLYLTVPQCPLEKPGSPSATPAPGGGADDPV
T2 sequence (Q92731 whole entry): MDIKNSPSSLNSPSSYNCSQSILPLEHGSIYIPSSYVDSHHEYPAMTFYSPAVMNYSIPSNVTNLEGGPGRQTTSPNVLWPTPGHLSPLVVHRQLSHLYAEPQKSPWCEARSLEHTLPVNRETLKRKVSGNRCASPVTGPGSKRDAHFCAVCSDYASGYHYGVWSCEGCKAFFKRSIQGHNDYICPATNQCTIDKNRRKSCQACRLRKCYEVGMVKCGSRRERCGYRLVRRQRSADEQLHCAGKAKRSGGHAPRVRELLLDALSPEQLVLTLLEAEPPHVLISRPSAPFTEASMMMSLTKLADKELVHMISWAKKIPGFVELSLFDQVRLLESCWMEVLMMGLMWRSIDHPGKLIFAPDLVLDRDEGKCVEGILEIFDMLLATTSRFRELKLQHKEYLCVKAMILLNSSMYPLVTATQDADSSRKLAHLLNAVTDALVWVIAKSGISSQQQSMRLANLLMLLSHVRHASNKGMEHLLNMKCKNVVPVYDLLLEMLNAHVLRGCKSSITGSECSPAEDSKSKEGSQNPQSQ
Trypsin, sequence (P00761 whole entry): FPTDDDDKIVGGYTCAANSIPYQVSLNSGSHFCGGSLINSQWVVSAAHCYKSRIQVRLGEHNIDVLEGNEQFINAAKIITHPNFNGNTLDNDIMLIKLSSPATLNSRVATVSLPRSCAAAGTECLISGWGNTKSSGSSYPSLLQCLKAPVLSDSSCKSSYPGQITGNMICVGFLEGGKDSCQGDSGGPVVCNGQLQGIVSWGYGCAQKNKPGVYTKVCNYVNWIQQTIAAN

For orientation: EC50 means the concentration at which the effect is half-maximal. The term IC50 denotes the concentration at which inhibition is half-maximal. Consider `COc1ccc(Cn2c(=O)[nH]c3cc(C(=O)NCc4ccc5c(c4)OCO5)ccc3c2=O)cc1`, for which the EC50 in assay [1] was > 120 µM (not active); in assay [2], > 120 µM (not active); in assay [3], 11 µM (active). The IC50 at Estrogen receptor was 18.9 µM (active).
Take `CSC1=N/C(=C\c2ccc(Br)o2)C(=O)S1`: the values for the IC50 on Estrogen receptor, on Estrogen receptor beta [4] and at Estrogen receptor beta [5] were 22.1 µM (active), 8.58 µM (active) and < 0.023 µM (not active), respectively.
On to `Cc1ccc(-c2noc(CSc3nnc(Cc4cccs4)n3-c3ccccc3)n2)cc1`, for which the EC50 in assay [6] was 3.56 µM (active).
Take `CCn1c(=O)cc(SCC(=O)N2CCN(c3ccccc3F)CC2)c2ccccc21`: the EC50 was > 79.4 µM (inactive) in [7], > 79.4 µM (not active) in [8] and > 79.4 µM (not active) in assay [9].
For `Cc1cc(=O)oc2cc(OCc3ccc(C(=O)N4CCN(c5ccc([N+](=O)[O-])cc5)CC4)cc3)ccc12`, the IC50 is > 100 µM (inactive) in assay [10] and > 100 µM (not active) in assay [11].
One may read the CC50 as the concentration giving 50% cytotoxicity. Turning to `CCOc1ccc(-c2nnc(NC(=O)c3ccc(OCC(C)C)c(OC)c3)o2)cc1`, the EC50 in assay [12] was 0.354 µM (active); in the assay with Streptococcus, 1.76 µM (active); in assay [6], 11.3 µM (active). Also, the CC50 in [13] is 13.8 µM (active); in assay [14], > 20 µM (active); in [15], 10.1 µM (active). The IC50 in the assay “cells” is 36.7 µM (active).
Take `COC(=O)c1sc(-c2ccccc2)cc1NC(=O)C1CC1`: the EC50 in [7] was > 79.4 µM (inactive); in [8], > 79.4 µM (not active); in assay [9], > 79.4 µM (not active).
As for `Cc1ccc(S(=O)(=O)NC(=O)c2cc(C)n(CCCn3ccnc3)c2C)cc1`, the IC50 at Bcl-2-like protein 10 was 74 µM (inactive).
Usually AC50 stands for the midpoint of the concentration-response curve, whichever way the signal moves. For `CC1CCN(c2oc(-c3ccc(F)cc3)nc2C#N)CC1`, the AC50 was 3.18 µM (active) at Trypsin and 9.46 µM (active) on CAAX prenyl protease 2.
With `CC(C)CN(C(=O)COC(=O)c1cc2c(s1)CCC2)C1CCS(=O)(=O)C1` (centres undefined), the IC50 at Bcl-2-like protein 10 was 26.6 µM (active); at Estrogen receptor, 2.95 µM (active); at Estrogen receptor beta [4] it was 1.91 µM (active); at Estrogen receptor beta [5], 1.94 µM (not active).
Regarding `Cc1ccc(NC(=O)CN2C(=O)S/C(=C\C(=O)Nc3ccc(Cl)cc3)C2=O)cc1`, the IC50 was > 100 µM (inactive) in [10] and > 100 µM (not active) in [11].
For `CCCN(CCC)S(=O)(=O)c1ccc(NS(=O)(=O)c2ccc(F)cc2)cc1`, the EC50 in assay [6] was 3.07 µM (active).
`CCN(CC(=O)Nc1ccccc1C(F)(F)F)C(=O)c1ccc(-n2nc(C)c(CCC(=O)OC)c2C)cc1`: on Troponin, cardiac muscle, the EC50 was > 71.5 µM (inactive).

Values taken from ChEMBL document CHEMBL1201862, “PubChem BioAssay data set” (2004).
